The values below come from patent US20150141485A1, “PROGNOSIS AND TREATMENT OF LUNG CANCER USING miRNA-135b” (NATIONAL CHENG KUNG UNIVERSITY, priority 2013, published 2015).

Data set [1] has as its system CL1-5-F4 cells. As to the kind of experiment: Western blot of Hippo pathway proteins. Type of data set: cell-based, human. As to conditions: 72 hours. As for the experimental part:
Western bolt analysis of the Hippo pathway proteins in CL1-5-F4 and CL141 cells incubated with Scramble (NC) of Antago-135b for 72 hours. Quantitative RT-PCR was used to assay miR-135b knockdown activity.
For orientation: Immunoblotting shows a protein as a band on a membrane.

The subject of data set [2] is CL1-5-F4 cells. The experiment in a line: Transwell invasion assay. Type of data set: cell-based, human. As to conditions: CL1-5-F4 cells transfected 48 hours, vs scramble (NC). How it is done: (§1) CL1-5-F4 and Hop-62 cells were transfected with scramble (NC) of miR-135b-specific antagomir (Antago-135b) for 48 hours and the subjected to migration assays (FIG. 2d) and invasion assays (FIG. 2e) as described above. *P<0.05;**P<0.005 by Student's t-test.
CL1-5-F4 cells transfected with plasmids expressing either control or miR-135b sponges were analyzed using in vitro invasion assay. The average number of invading cells obtained in the transwell invasion assay is presented (n=3).
(§2) Transwell chambers ([…], BD Falcon, Franklin Lakes, N.J.) were coated with the appropriate amount of Matrigel (BD Biosciences, San Jose, Calif.). Next, 2.5×10^4 cells were suspended in NuSerum-containing media (Gibco BRL, Grand Island N.Y., USA), seeded in the chamber and cultured, Cells that invaded the chamber from top to bottom were fixed with methanol and stained with a solution of propidium iodine (Sigma-Aldrich, St. Louis, Mo.). The propidiumiodine-positive signal was quantified using Analytical Imaging Station software package. Each sample was assayed in triplicate.

Data set [3] relates to Hop-62 cells. As to the kind of experiment: Transwell invasion assay. Type of data set: cell-based. As to conditions: Hop-62 cells transfected 48 hours, vs scramble (NC). How it is done: as §1, §2
Data set [4] deals with H441 human lung adenocarcinoma cells. The experiment in a line: Subcutaneous xenograft tumor growth. The format is in vivo, nude mice. As for the experimental part: Nude mice were subcutaneously injected with 5×10^5 H441 cells. Scramble antagomir (NC) or miR-135b Antagomir (antago-135b) was administered via tail vein injection 2 days after implantation. On day 14 after cancer cell implantation, tumor volume measurements began and were performed every 4 days (n=9). Mean±s.e.m. is shown,*P<0.05 by Student's t-test.
(§3) Animals were housed in a specific-pathgen-free environment in the animal facility of the Institute of Biomedical Sciences, Academia Sinica. All experimental procedures were in compliance with the Academia Sinica IACUC and Council of Agriculture Guidebook for the Care and Use of Laboratory Animals. For intravenous injections of the tumor cells, 1×10^6 cells were suspended in 0.1 mL of phosphate-buffered saline (PBS) and injected into lateral tail vein of SCID mice (10 mice per group). At 8 weeks after injection, all mice were killed, and lung surface tumor foci were counted. For the subcutaneous tumor assay, 1×10^6 CL1-0 cells or 2×10^5 H441 cells were subcutaneously injected in 0.1 mL of PBS into male nude mice (n=8 per group) and allowed to grow for 35 days to reach a volume of 50-200 mm^3 Control antagomir (Scramble) or anti-miR-135b antagomir (antago-135) was intravenously injected at a concentration of 10 μM in 0.1 mL of PBS 4 days after the cells were implanted. An example of a miR-135b antagomir is 5′mU(*)mC(*)mAmCmAmUmAmG-mGmAmAmUmGmAmAmAmAmGmCmC(*)mA(*)mU(*)mA(*)(3′-Ch1)3′ (SEQ ID NO:8). The mN indicates 2′-O-methyl base;* indicates phosphorothioate linkage; Ch1 indicates cholesterol.

Data set [5] relates to CL1-5-F4 cells. As to the kind of experiment: Late-stage metastasis model, intravenous injection of tumor cells. The format is in vivo, mice. The note with it: 3 months after i.v. cell injection, tail vein treatments, P=0.018.
Description: CL1-5 cells with scramble antagomir (NC) or miR-135 antagomir (Antago-135b) were intravenously injected to assess the effect of antagomir on late-stage metastasis (n=9). Representative average of visible metastatic lung nodules and H&E staining (right). Data are expressed as the mean±s.e.m. *P<0.05 by Student's t-test.
as §3, with “At 8 weeks after injection, all mice were killed, and lung surface tumor foci were counted.” left out, “An example of a miR-135b antagomir is 5′mU(*)mC(*)mAmCmAmUmAmG-mGmAmAmUmGmAmAmAmAmGmCmC(*)mA(*)mU(*)mA(*)(3′-Ch1)3′ (SEQ ID NO:8). The mN indicates 2′-O-methyl base;* indicates phosphorothioate linkage; Ch1 indicates cholesterol.” left out
The impact of the antagomir during the late stages in metastasis was determined, such as extravasation and colonization. […]

The subject of the next data set is UACC-257 cells. As to the kind of experiment: Western blot of endogenous LZTS1. As to conditions: 100 nM, 48 hours. Type of data set: cell-based. As for the experimental part:
CL1-5-F4 and UACC-257 cells were administrated with 100 nM of negative control (NC) or antago-135b for 48 hours. Total cell lysates were harvested for western blot analysis.

Data set [6] relates to Hop-62 cells. As to the kind of experiment: Migration assay (culture inserts). The format is cell-based. The note with it: Hop-62 cells transfected 48 hours, vs scramble (NC). How it is done: as §1
For the migration assay, culture inserts (Ibidi, Munich, Germany) were inserted into 60-mm dishes. Next, the cell suspensions were seeded in each culture insert well at a concentration of 2.5×10^4 (CL1-0) or 3×10^4 (CL1-5-F4 and UACC-257) cells/mL. The culture inserts were removed to leave a gap of approximately 500 μm.

Setting [7] is: antagomir systemically injected 4 days after cancer cell implantation.

Oligonucleotides are written 5' to 3', each unit as a sugar letter and its base; * is a phosphorothioate linkage, no mark a phosphodiester; rarer units and linkages stand in square brackets, end groups in braces. Plain capitals give the bases only. {Chol} = cholesterol; m = 2'-O-methyl

Consider “5′mU(*)mC(*)mAmCmAmUmAmG-mGmAmAmUmGmAmAmAmAmGmCmC(*)mA(*)mU(*)mA(*)(3′-Ch1)3′ (SEQ ID NO:8) (mU*mC*mAmCmAmUmAmGmGmAmAmUmGmAmAmAmAmGmCmC*mA*mU*mA*{Chol}) [miR-135b antagomir]”, for which, in the data set on CL1-5-F4 cells [1], the “LATS2, β-TrCP and NDR2 expressions” value is listed as “induced”; the TAZ protein expression result is given as “reduced”. For the same substance, in the data set on CL1-5-F4 cells [2], the invasive ability result was “inhibited these changes”. Further, the invasive ability result in the data set on Hop-62 cells [3] is “inhibited these changes”. Also, the “growth of H441 cells” value in data set [4] (antagomir administered before xenograft implantation) is listed as “inhibited”. In data set [4] (setting [7]), the xenograft tumor incidence result is reported as “significantly reduced” and the xenograft tumor volume result is “significantly reduced”. Further, the “metastatic lung nodules vs control group” value with CL1-5-F4 cells [5] is “eight-fold fewer”. In the data set with UACC-257 cells, the LZTS1 expression entry was “significantly increased”. In the data set on Hop-62 cells [6], the migratory ability result was “inhibited these changes”.
